Like-named read-outs stand apart in the source and are kept apart here.
Target: T1, PAF-Rezeptor (Homo sapiens, UniProt P25105)
T1 construct: endogenous in cells; host or cells: intact human platelets from blood of healthy donors, purified on Sepharose CL-2B
Experiment: [^3H]PAF receptor binding on vital human platelets
Experimental: [^3H]PAF-Rezeptor-Bindung an vitalen humanen Blutplättchen
Bestimmt wird die konkurrierende Wechselwirkung von Prüfsubstanzen (hier PAF-Antagonisten) mit der bekannten Wechselwirkung des Radioliganden [^3H]PAF zum gleichen Rezeptor.
Die Bindungsstudien wurden an vitalem menschlichen Thrombozyten vorgenommen. Blutproben von gesunden Spendern wurden mit ACD-Puffer verdünnt und zentrifugiert (15 Min., 160 x g). Das blättchenreiche Plasma wird durch Chromatographie an Sepharose CL-2B [Zum Eluieren: HEPES-Puffer, pH 7,4 20° C] gereinigt.
Definierte Mengen [z.B. 800 µl] der Blättchensuspension wurden 90 Min. bei Raumtemperatur inkubiert, d.h. vermischt mit: • a) einer […] [^3H]PAF-Lösung, verdünnt mit Puffer. • b) mit einer 30 p molaren [^3H] PAF-Lösung, die gleichzeitig eine u.-molare (nicht markierte) PAF-Lösung enthält, • c) mit der 30 pmolaren [^3H]PAF-Lösung und den Lösungen der Prüfsubstanzen (unterschiedliche Konzentrationen) • a) Dient zur Ermittlung der totalen Bindung, • b) Dient zur Ermittlung der unspezifischen Bindung.
Die Reaktion wurde durch Vakuumfiltration abgestoppt. Die Filter mit den Blutplättchen werden mit Scintilationsflüssigkeit versetzt und die verbliebene Radioaktivität in einem Counter gemessen. Die spezifische Bindung ergibt sich aus totaler Bindung minus unspezifischer Bindung. Man bestimmt entweder die ICso-Werte (d.h. jene Konzentration der Prüfsubstanz, die 50 % des Radioliganden - hier [^3H] PAF - vom Rezeptor verdrängt), und gibt diese an. Oder errechnet hieraus die Ki-Werte. Dies kann computerunterstützt durch ein Iterationsverfahren der Bindungskurven geschehen. ICso- bzw. Ki-Werte sind ein Maß für die Rezeptoraffinität der Testsubstanz. Kleinere Werte zeigen die höhere Affinität an.

[1] = four separated isomers of Example 9d, read-out: [^3H]PAF-Bindung (Ki)

T1 sequence (P25105 whole entry): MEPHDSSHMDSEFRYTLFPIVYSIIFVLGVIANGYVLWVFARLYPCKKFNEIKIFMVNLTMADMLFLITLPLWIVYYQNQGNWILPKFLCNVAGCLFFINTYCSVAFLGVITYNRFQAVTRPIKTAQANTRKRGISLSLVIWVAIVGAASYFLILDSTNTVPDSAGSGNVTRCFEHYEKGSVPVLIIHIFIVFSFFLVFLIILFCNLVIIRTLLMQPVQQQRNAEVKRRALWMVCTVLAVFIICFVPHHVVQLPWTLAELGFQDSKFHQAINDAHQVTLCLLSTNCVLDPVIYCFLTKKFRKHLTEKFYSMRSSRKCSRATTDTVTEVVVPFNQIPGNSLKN

Molecule | Ki [1] | other results
3-(Morpholinocarbonyl)-5-(2-chlorphenyl)-7,10-dimethyl-3,4-dihydro-2H,7H-cyclopenta[4,5,thieno-[3,2-f]-[1.2.4]triazolo[4.3-a] [1,4]diazepin [(-) 9dB] | 8 nM | –
Cc1nnc2n1-c1sc(CCC(=O)N3CCOCC3)cc1C(c1ccccc1Cl)=NC2C (racemic) [Beispiel 1, 2-(Morpholinylcarbonylethyl)-4-(2-chlorphenyl)-6,9-dimethyl-6H-thieno(3,2-f][1,2,4]triazolo[4,3-a][1,4]diazepin] | – | Ki (not stated whether IC50 or Ki, read-out: Affinität zum PAF-Rezeptor): 16 nM
Cc1nnc2n1-c1sc(CCC(=O)N3CCOCC3)cc1C(c1ccccc1Cl)=NC2C (single isomer, unassigned) [IB, 2-(Morpholinylcarbonylethyl)-4-(2-chlorphenyl)-6,9-dimethyl-6H-thieno(3,2-f][1,2,4]triazolo[4,3-a][1,4]diazepin] | – | bindet stärker an den PAF-Rezeptor als die (+)-Form (1A) (ratio of binding, (-)-form versus (+)-form of Example 1): 35 mal
Cc1nnc2n1-c1sc3c(c1C(c1ccccc1Cl)=NC2C)CC(C(=O)N1CCOCC1)C3 (single isomer, unassigned; (+)) [(+) 9dA] | 400 nM | –
Cc1nnc2n1-c1sc3c(c1C(c1ccccc1Cl)=NC2C)CC(C(=O)N1CCOCC1)C3 (single isomer, unassigned; (+)) [(+) 9dB] | 3000 nM | –
Cc1nnc2n1-c1sc3c(c1C(c1ccccc1Cl)=NC2C)CC(C(=O)N1CCOCC1)C3 (single isomer, unassigned; (-)) [(-) 9dA] | 70 nM | –
Cc1nnc2n1-c1sc3c(c1C(c1ccccc1Cl)=NC2C)CC(C(=O)N1CCOCC1)C3 (stereo not shown) [Beispiel 9d] | – | Ki (33 : 67 mixture of diastereomers, read-out: [^3H]PAF-Bindung: K): 83 nM
